One assay has as its system E. coli. As to the kind of experiment: Kill or inhibit growth/proliferation; morphology, biofilm and growth disruption (Tables 5, 6). Further: test concentration or dose not given here. Type of assay: cell-based, Escherichia coli. Also noted: key: A: Peptide aggregates; B: Less hyphal formation; Clumps; Diffuse clumps and small polyps; F: Diffuse growth; H: Thin; I: Growth inhibition; Microcolony formation; Rippled; Small polyps; Thick; W: Halo formation on top, microlonies on bottom.

The test system of the next assay is S. epidermidis. Described as above. Type of assay: cell-based, Staphylococcus epidermidis. Also noted: key: A: Peptide aggregates; B: Less hyphal formation; Clumps; Diffuse clumps and small polyps; F: Diffuse growth; H: Thin; I: Growth inhibition; Microcolony formation; Rippled; Small polyps; Thick; W: Halo formation on top, microlonies on bottom.
For a further assay, the system named is microorganisms. As to the kind of experiment: Peptides having multiple activities (targeting/binding, antimicrobial, growth or phenotype altering). From the text: In certain embodiments, peptides described herein can have multiple activities. Thus for example, a peptide can have both binding/targeting activity and antimicrobial activity. Such peptides can be used, e.g., in a chimeric construct, for any or all of these properties. Thus, for example, a peptide designated “B” in Table 8 can be used as a targeting peptide. If it is also designated G or M it can also be used for antimicrobial activity.

In assay [1] the test system is microorganisms (e.g., bacteria, yeasts, fungi). As to the kind of experiment: Targeting peptide binding to target microorganisms (Table 3). As to conditions: preferably 1x PBS; for Target(s): microorganism(s) the targeting peptide binds; for Target(s) (microorganisms bound by the targeting peptide): peptide binding in aqueous buffers varied by peptide solubility.
A further assay concerns MRSA. As to the kind of experiment: Kill or inhibit growth/proliferation; morphology, biofilm and growth disruption (Tables 5, 6). Further: test concentration or dose not given here. Type of assay: cell-based, Methicillin-resistant Staphylococcus aureus. Set-up: key: A: Peptide aggregates; B: Less hyphal formation; Clumps; Diffuse clumps and small polyps; F: Diffuse growth; H: Thin; I: Growth inhibition; Microcolony formation; Rippled; Small polyps; Thick; W: Halo formation on top, microlonies on bottom.

For the next assay, the system named is S. pneumoniae. The assay is described as above. Set-up: key: A: Peptide aggregates; B: Less hyphal formation; Clumps; Diffuse clumps and small polyps; F: Diffuse growth; H: Thin; I: Growth inhibition; Microcolony formation; Rippled; Small polyps; Thick; W: Halo formation on top, microlonies on bottom. Type of assay: cell-based, Streptococcus pneumoniae.
In the next assay the test system is E. faecalis. The assay is described as above. Type of assay: cell-based, Enterococcus faecalis. Also noted: key: A: Peptide aggregates; B: Less hyphal formation; Clumps; Diffuse clumps and small polyps; F: Diffuse growth; H: Thin; I: Growth inhibition; Microcolony formation; Rippled; Small polyps; Thick; W: Halo formation on top, microlonies on bottom. Further: test concentration or dose not given here.
Setting [2] is: peptide binding conducted in aqueous buffers varied by peptide solubility.
Setting [3] is: binding in aqueous buffers depending on peptide solubility.

“Also recorded” adds a separate entry of the source.

16 substances from patent US20110039762A1, “TARGETED ANTIMICROBIAL MOIETIES” (C3 JIAN, INC., priority 2009, published 2011) can be followed below.
Wherever Organism, effect (morphology, biofilm and growth disruption) is given: test concentration or dose not given here.
Wherever Organism, effect is given: test concentration or dose not given here.

Consider “PF-395: peptide having multiple activities (YCVPLGNMGNMNNKIW; Peptide with targeting and/or antimicrobial activity)”, for which the “Organism, effect” value with E. coli is reported as “E. coli (R)”; in the assay with S. epidermidis, “S. epidermidis (C)”; in the assay with MRSA it was “MRSA (C)”. Also, the Activities result in the assay on microorganisms was “G B”. The “Target(s)” value in assay [1] (setting [2]) is recorded as “S. epidermidis; also recorded: E. coli; also recorded: P. aeruginosa; also recorded: S. pneumoniae; also recorded: E. faecalis; also recorded: C. jeikeium; also recorded: C. jejuni”.

Regarding “PF-178: peptide having multiple activities (EVYSSPTNNVAITVQNN; Peptide with targeting and/or antimicrobial activity)”, the “Organism, effect” value in the assay with E. coli is “E. coli (C)”; in the assay on S. epidermidis it was “S. epidermidis (D)”; in the assay on S. pneumoniae it was “S. pneumoniae (D)”; in the assay on MRSA it was “MRSA (M)”. The Activities result in the assay on microorganisms is given as “G B”.

“PF-443: peptide having multiple activities (chain 1 KLLYFFNYFENLQQVHLLVQL; chain 2 KLLYFFNYFENLQQVHLLVQL; Peptide with targeting and/or antimicrobial activity)”: the figures for the “Organism, effect” value in the assay with E. coli, in the assay with S. pneumoniae and in the assay with MRSA were “E. coli (R)”, “S. pneumoniae (C)” and “MRSA (C)”, respectively. In addition, the Activities result in the assay on microorganisms is “G B”.

Consider “PF-541 (RRNLNSPNIKTRKRALKIIKQHQRSK; Peptide with targeting and/or antimicrobial activity)”, for which the “Organism, effect” value in the assay on E. coli was “E. coli (H)”; in the assay with S. pneumoniae it was “S. pneumoniae (H)”.

Take “PF-385: peptide having multiple activities (chain 1 MIKKSILKIKYYVPVLISLTLILSA; chain 2 MIKKSILKIKYYVPVLISLTLILSA; Peptide with targeting and/or antimicrobial activity)”: the “Organism, effect” value with E. coli was “E. coli (A)”. For the same substance, in the assay on microorganisms, the Activities result is recorded as “G B”. In addition, the entries for the “Target(s)” value in assay [1] (setting [3]) and in assay [1] (setting [2]) were “S. epidermidis” and “E. coli; also recorded: P. aeruginosa; also recorded: C. albicans; also recorded: E. faecalis”, respectively.

Take “PF-370: peptide having multiple activities (chain 1 VIFLHKESGNLKEIFY; chain 2 VIFLHKESGNLKEIFY; Peptide with targeting and/or antimicrobial activity)”: the results for the “Organism, effect” value with E. coli, with S. epidermidis and in the assay with MRSA were “E. coli (R)”, “S. epidermidis (C)” and “MRSA (C)”, respectively. Also, in the assay with microorganisms, the Activities result is “G B”. Also, in assay [1] (setting [3]), the “Target(s)” value is on record as “S. epidermidis; also recorded: E. coli; also recorded: P. aeruginosa; also recorded: E. faecalis; also recorded: C. jejuni”.

As to “PF-383: peptide having multiple activities (chain 1 WSEIEINTKQSN; chain 2 WSEIEINTKQSN; Peptide with targeting and/or antimicrobial activity)”, the “Organism, effect” value in the assay with E. coli is “E. coli (R)”; in the assay with S. epidermidis, “S. epidermidis (C)”. The Activities entry in the assay on microorganisms is listed as “G B”. The “Target(s)” value in assay [1] (setting [3]) is given as “S. epidermidis; also recorded: B. subtilis; also recorded: B. fragilis; also recorded: E. coli; also recorded: C. jejuni”.

Turning to “PF-344: peptide having multiple activities (DERLPEAKAIRNFNGSVMVLGR; Peptide with targeting and/or antimicrobial activity)”, the “Organism, effect” value in the assay on E. coli is recorded as “E. coli (A)”. Besides, the Activities result in the assay with microorganisms was “G B”. In addition, the “Target(s)” value in assay [1] (setting [3]) is on record as “B. subtilis; also recorded: C. jejuni”.

With “PF-403: peptide having multiple activities (LLSTEQLLKYYDGETFDGFQLPSNE; Peptide with targeting and/or antimicrobial activity)”, the figures for the “Organism, effect” value in the assay on E. coli, with S. epidermidis and in the assay with MRSA were “E. coli (R)”, “S. epidermidis (M)” and “MRSA (M)”, respectively. Also, the Activities result in the assay with microorganisms is reported as “G B”. For the same substance, the “Target(s)” value in assay [1] (setting [2]) is recorded as “E. coli; also recorded: P. aeruginosa; also recorded: S. pneumoniae; also recorded: E. faecalis; also recorded: C. jeikeium; also recorded: C. jejuni”.

With “PF-360: peptide having multiple activities (chain 1 MEQKVKVIFVPRSKPDNQLKTFVSAVLFKA; chain 2 MEQKVKVIFVPRSKPDNQLKTFVSAVLFKA; Peptide with targeting and/or antimicrobial activity)”, the “Organism, effect” value in the assay with E. coli is given as “E. coli (C)”; with S. epidermidis it was “S. epidermidis (S)”; with MRSA it was “MRSA (H)”. Moreover, the Activities result in the assay with microorganisms is on record as “G B”. The “Target(s)” value in assay [1] (setting [3]) is recorded as “S. epidermidis; also recorded: B. subtilis; also recorded: E. coli; also recorded: P. aeruginosa; also recorded: C. albicans; also recorded: E. faecalis; also recorded: C. jeikeium; also recorded: C. jejuni”.

As for “PF-664: peptide having multiple activities (chain 1 DQLCVEYPARVSTG; chain 2 DQLCVEYPARVSTG; Peptide with targeting and/or antimicrobial activity)”, the “Organism, effect (morphology, biofilm and growth disruption)” value in the assay on S. epidermidis was “S. epidermidis (M)”; with S. pneumoniae it was “S. pneumoniae (M)”; with E. faecalis, “E. faecalis (R)”; with MRSA, “MRSA (R)”. In the assay on microorganisms, the Activities result is listed as “G B”. Besides, in assay [1], the “Target(s) (microorganisms bound by the targeting peptide)” value is “M. smegmatis”.

As for “PF-362: peptide having multiple activities (chain 1 NIERILKEKVWMIRCVE; chain 2 NIERILKEKVWMIRCVE; Peptide with targeting and/or antimicrobial activity)”, the “Organism, effect” value with E. coli is recorded as “E. coli (C)”; with MRSA, “MRSA (C)”. Further, the Activities entry in the assay on microorganisms was “G B”. Moreover, in assay [1] (setting [3]), the “Target(s)” value is “S. epidermidis; also recorded: E. coli; also recorded: P. aeruginosa; also recorded: C. albicans; also recorded: E. faecalis; also recorded: C. jejuni”.

Regarding “PF-429: peptide having multiple activities (AATLICVGSGIMSSL; Peptide with targeting and/or antimicrobial activity)”, the “Organism, effect” value with S. epidermidis is listed as “S. epidermidis (C)”; in the assay on S. pneumoniae, “S. pneumoniae (M)”; in the assay on E. faecalis, “E. faecalis (C)”; with MRSA, “MRSA (C)”. In addition, the Activities result with microorganisms is listed as “G B”. In assay [1] (setting [2]), the “Target(s)” value was “S. epidermidis; also recorded: S. pneumoniae; also recorded: C. jeikeium”.

Take “PF-638: peptide having multiple activities (chain 1 TFILPK; chain 2 TFILPK; Peptide with targeting and/or antimicrobial activity)”: the “Organism, effect” value is reported as “S. epidermidis (R)” with S. epidermidis, “S. pneumoniae (I)” with S. pneumoniae, “E. faecalis (H)” in the assay with E. faecalis and “MRSA (M)” with MRSA. Also, the Activities entry in the assay with microorganisms is recorded as “G B”. Besides, the “Target(s) (microorganisms bound by the targeting peptide)” value in assay [1] is “S. epidermidis and C. albicans and MRSA and C. jeikeium”.

In the case of “PF-350: peptide having multiple activities (LAVILRAIVY; Peptide with targeting and/or antimicrobial activity)”, the “Organism, effect” value with E. coli is listed as “E. coli (C)”; in the assay on S. epidermidis it was “S. epidermidis (C)”; in the assay on MRSA, “MRSA (C)”. Further, the Activities entry with microorganisms is listed as “G B”. In addition, the “Target(s)” value in assay [1] (setting [3]) is “S. epidermidis; also recorded: E. coli; also recorded: E. faecalis; also recorded: C. jeikeium; also recorded: C. jejuni”.

Consider “PF-413: peptide having multiple activities (TFAGSIKIGVPDLVHVTFNCKR; Peptide with targeting and/or antimicrobial activity)”, for which the “Organism, effect” value is “E. coli (S)” in the assay with E. coli, “S. epidermidis (C)” in the assay with S. epidermidis and “MRSA (C)” in the assay on MRSA. Besides, the Activities result in the assay with microorganisms is recorded as “G B”. Moreover, the “Target(s)” value in assay [1] (setting [2]) was “P. aeruginosa; also recorded: C. albicans; also recorded: C. jejuni”.
